# Measurements as given in PubChem BioAssay (NCI).
#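 48-hour exposure; five concentrations; linearly interpolated endpoints. GI50 = concentration required for 50% inhibition of growth. TGI: concentration producing complete growth inhibition.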 *1 amine or outer side, *2 acyl side, *3 side chain or, on linkers, in order; H or OH if unused. Where a SMILES comes first, the peptide text is derived from it. Bridges are numbered along the chain shown (N, C = ends). [ ]: non-standard residue; d: D form. The star is where a group is joined. ξ: configuration not given here. ξOrn(4,5-diOH) = O=C(C(CC(O)C(O)N[*:3])N[*:1])[*:2]; ξhTyr(βξ-OH,γξ-OH) = NC(C(=O)O)C(O)C(O)c1ccc(O)cc1; ξPro(3ξ-OH,4ξ-Me) = CC1CNC(C(=O)O)C1O; X22 = CCCCC/C=C/C/C=C\CCCCCCCC(=O)*; Hyp = O=C(O)[CH]1C[CH](O)CN1
# Experiments:
# Assay in all cases: inhibition of tumour cell growth, NCI panel, 48 h
# HOP-92 NSCLC = test system: HOP-92 NSCLC
# BT-549 breast = test system: BT-549 breast
# UACC-257 melanoma = test system: UACC-257 melanoma
# NCI-H23 lung = test system: NCI-H23 lung
# UO-31 renal = test system: UO-31 renal
# MOLT-4 leukemia = test system: MOLT-4 leukemia
# RPMI-8226 leukemia = test system: RPMI-8226 leukemia
# SF-539 CNS = test system: SF-539 CNS
# K-562 leukemia = test system: K-562 leukemia
# NCI-H226 lung = test system: NCI-H226 lung
# NCI-H460 lung = test system: NCI-H460 lung
# SW-620 colon = test system: SW-620 colon
# OVCAR-3 ovarian = test system: OVCAR-3 ovarian
# SK-OV-3 ovarian = test system: SK-OV-3 ovarian
# COLO 205 colon = test system: COLO 205 colon
# SNB-19 CNS = test system: SNB-19 CNS
# LOX IMVI melanoma = test system: LOX IMVI melanoma
# A549 NSCLC = test system: A549 NSCLC
# HCC-2998 colon = test system: HCC-2998 colon
# UACC-62 melanoma = test system: UACC-62 melanoma
# TK-10 renal = test system: TK-10 renal
# NCI-H522 lung = test system: NCI-H522 lung
# OVCAR-8 ovarian = test system: OVCAR-8 ovarian
# PC-3 prostate = test system: PC-3 prostate
# RXF 393 renal = test system: RXF 393 renal
# M14 melanoma = test system: M14 melanoma
# HCT-15 colon = test system: HCT-15 colon
# SR leukemia = test system: SR leukemia
# CAKI-1 renal = test system: CAKI-1 renal
# MDA-MB-435 = test system: MDA-MB-435
# DU-145 prostate = test system: DU-145 prostate
# MCF7 breast = test system: MCF7 breast
# OVCAR-5 ovarian = test system: OVCAR-5 ovarian
# ACHN renal = test system: ACHN renal
# U251 CNS = test system: U251 CNS
# EKVX NSCLC = test system: EKVX NSCLC
# OVCAR-4 ovarian = test system: OVCAR-4 ovarian
# 786-0 renal = test system: 786-0 renal
# CCRF-CEM leukemia = test system: CCRF-CEM leukemia
# HS 578T breast = test system: HS 578T breast
# SNB-75 CNS = test system: SNB-75 CNS
# HOP-62 NSCLC = test system: HOP-62 NSCLC
# MALME-3M melanoma = test system: MALME-3M melanoma
# SF-268 CNS = test system: SF-268 CNS
# NCI/ADR-RES ovarian = test system: NCI/ADR-RES ovarian
# SN12C renal = test system: SN12C renal
# HL-60(TB) leukemia = test system: HL-60(TB) leukemia
# HCT-116 colon = test system: HCT-116 colon
# A498 renal = test system: A498 renal
# SF-295 CNS = test system: SF-295 CNS
# HT29 colon = test system: HT29 colon
# SK-MEL-5 melanoma = test system: SK-MEL-5 melanoma
compound,measurement,setting,value
"CCCCC/C=C/C/C=C\CCCCCCCC(=O)NC1CC(O)C(O)NC(=O)C2C(O)C(C)CN2C(=O)C(C(C)O)NC(=O)C(C(O)C(O)c2ccc(O)cc2)NC(=O)C2CC(O)CN2C(=O)C(C(C)O)NC1=O (stereo not drawn) (X22-[ξOrn(4,5-diOH)]T[Hyp][ξhTyr(βξ-OH,γξ-OH)]T[ξPro(3ξ-OH,4ξ-Me)]; lactam 1-C; configuration not given here)",TGI,HOP-92 NSCLC,> 100 µM
same,TGI,BT-549 breast,> 100 µM
same,TGI,UACC-257 melanoma,> 100 µM
same,TGI,NCI-H23 lung,> 100 µM
O=C(CCN1CCOCC1)Nc1ccc(Cn2nnc3c2C(=O)c2nnn(Cc4ccc(NC(=O)CCN5CCOCC5)cc4)c2C3=O)cc1,GI50,UO-31 renal,> 100 µM
same,TGI,UO-31 renal,> 100 µM
same,GI50,MOLT-4 leukemia,0.763 µM
same,TGI,MOLT-4 leukemia,3.48 µM
same,GI50,RPMI-8226 leukemia,1.43 µM
same,TGI,RPMI-8226 leukemia,> 21.1 µM
same,GI50,SF-539 CNS,0.913 µM
same,TGI,SF-539 CNS,5.11 µM
same,GI50,K-562 leukemia,1.81 µM
same,TGI,K-562 leukemia,> 100 µM
same,GI50,NCI-H226 lung,> 100 µM
same,TGI,NCI-H226 lung,> 100 µM
same,GI50,NCI-H460 lung,0.569 µM
same,TGI,NCI-H460 lung,> 100 µM
same,GI50,SW-620 colon,2.58 µM
same,TGI,SW-620 colon,> 100 µM
same,GI50,OVCAR-3 ovarian,0.333 µM
same,TGI,OVCAR-3 ovarian,1.39 µM
same,GI50,SK-OV-3 ovarian,> 84 µM
same,TGI,SK-OV-3 ovarian,> 100 µM
same,GI50,COLO 205 colon,0.645 µM
same,TGI,COLO 205 colon,2.13 µM
same,GI50,SNB-19 CNS,1.56 µM
same,TGI,SNB-19 CNS,3.07 µM
same,GI50,LOX IMVI melanoma,0.678 µM
same,TGI,LOX IMVI melanoma,3.37 µM
same,GI50,HOP-92 NSCLC,2.36 µM
same,TGI,HOP-92 NSCLC,4.64 µM
same,GI50,A549 NSCLC,> 100 µM
same,TGI,A549 NSCLC,> 100 µM
same,GI50,HCC-2998 colon,2.62 µM
same,TGI,HCC-2998 colon,6.68 µM
same,GI50,UACC-62 melanoma,1.53 µM
same,TGI,UACC-62 melanoma,3.14 µM
same,GI50,TK-10 renal,> 100 µM
same,TGI,TK-10 renal,> 100 µM
same,GI50,NCI-H522 lung,1.63 µM
same,TGI,NCI-H522 lung,4.34 µM
same,GI50,OVCAR-8 ovarian,> 100 µM
same,TGI,OVCAR-8 ovarian,> 100 µM
same,TGI,PC-3 prostate,> 100 µM
same,GI50,RXF 393 renal,> 100 µM
same,TGI,RXF 393 renal,> 100 µM
same,GI50,M14 melanoma,6.74 µM
same,TGI,M14 melanoma,> 23.1 µM
same,GI50,HCT-15 colon,> 100 µM
same,TGI,HCT-15 colon,> 100 µM
same,GI50,SR leukemia,1.68 µM
same,TGI,SR leukemia,7.62 µM
same,GI50,CAKI-1 renal,> 100 µM
same,TGI,CAKI-1 renal,> 100 µM
same,GI50,MDA-MB-435,0.324 µM
same,TGI,MDA-MB-435,0.799 µM
same,GI50,DU-145 prostate,18.6 µM
same,TGI,DU-145 prostate,> 52.4 µM
same,GI50,MCF7 breast,0.271 µM
same,TGI,MCF7 breast,0.978 µM
same,GI50,OVCAR-5 ovarian,> 100 µM
same,TGI,OVCAR-5 ovarian,> 100 µM
same,GI50,ACHN renal,> 100 µM
same,TGI,ACHN renal,> 100 µM
same,GI50,U251 CNS,4.25 µM
same,TGI,U251 CNS,18.4 µM
same,GI50,EKVX NSCLC,> 100 µM
same,TGI,EKVX NSCLC,> 100 µM
same,GI50,OVCAR-4 ovarian,1.36 µM
same,TGI,OVCAR-4 ovarian,3.44 µM
same,GI50,BT-549 breast,2.87 µM
same,TGI,BT-549 breast,8.77 µM
same,GI50,786-0 renal,> 100 µM
same,TGI,786-0 renal,> 100 µM
same,GI50,CCRF-CEM leukemia,0.34 µM
same,TGI,CCRF-CEM leukemia,> 100 µM
same,GI50,HS 578T breast,3.03 µM
same,TGI,HS 578T breast,24.9 µM
same,GI50,SNB-75 CNS,1.93 µM
same,TGI,SNB-75 CNS,3.6 µM
same,GI50,HOP-62 NSCLC,57.7 µM
same,TGI,HOP-62 NSCLC,> 100 µM
same,GI50,MALME-3M melanoma,0.247 µM
same,TGI,MALME-3M melanoma,0.747 µM
same,GI50,SF-268 CNS,1.28 µM
same,TGI,SF-268 CNS,> 100 µM
same,GI50,NCI/ADR-RES ovarian,> 100 µM
same,TGI,NCI/ADR-RES ovarian,> 100 µM
same,GI50,UACC-257 melanoma,1.64 µM
same,TGI,UACC-257 melanoma,3.57 µM
same,GI50,SN12C renal,0.52 µM
same,TGI,SN12C renal,2 µM
same,GI50,HL-60(TB) leukemia,1.14 µM
same,TGI,HL-60(TB) leukemia,4.63 µM
same,GI50,HCT-116 colon,0.384 µM
same,TGI,HCT-116 colon,> 100 µM
same,GI50,A498 renal,> 100 µM
same,TGI,A498 renal,> 100 µM
same,GI50,NCI-H23 lung,1.43 µM
same,TGI,NCI-H23 lung,5.52 µM
same,GI50,SF-295 CNS,> 25.7 µM
same,TGI,SF-295 CNS,> 100 µM
same,GI50,HT29 colon,1.24 µM
same,TGI,HT29 colon,> 100 µM
same,GI50,SK-MEL-5 melanoma,0.59 µM
same,TGI,SK-MEL-5 melanoma,1.71 µM
